# Assay results: patent publication US20220193201A1, “GLP-1R AGONIST REDUCES RETINAL INFLAMMATION AND NEURON DEATH SECONDARY TO OCULAR HYPERTENSION” (THE TRUSTEES OF THE UNIVERSITY OF PENNSYLVANIA, priority 2020, published 2022)
# How the values were obtained:
# [1] = test system: ACSA2+ cells (astrocyte and Müller cell enriched); assay: qPCR of pan reactive, A1-specific transcripts and C3 in ACSA2+ retinal cells of microbead-injected mice; assay type: in vivo, mouse; settings: NLY01 5 mg/kg s.c. twice weekly vs NSS
# [2] = Intraocular pressure (IOP) measurement in microbead-induced ocular hypertension mouse glaucoma model; settings: NLY01 5 mg/kg s.c. twice weekly vs normal saline; IOP across the study
# [3] = test system: NFκB; settings: GLP-1R-dependent manner; cited from earlier work
# [4] = test system: retinal ganglion cells (RGCs); assay: Retinal ganglion cell counting on retinal flatmounts (Brn3a, Rbpms), microbead eIOP model, subcutaneous NLY01; assay type: in vivo, mouse; settings: 42 days; NLY01 5 mg/kg twice weekly vs NSS; bead eye normalized to BSS eye
# [5] = test system: NFκB; assay: phospho-NFκB/total NFκB ELISA and NFκBIA (IκBα) qPCR in sorted CD11b+ retinal cells of microbead-injected mice; assay type: in vivo, mouse; settings: 42nd day post-injection; CD11b+ CD11c− and CD11b+ CD11c+ cells; NLY01 5 mg/kg s.c. twice weekly vs NSS
# Experimental: FIGS. 11A-11D show NLY01 modulates NFκB signaling in CD11b+ CD11c− and CD11b+ CD11c+ cells. Related to FIGS. 4A-4H and 5A-5H. C57BL6/J (WT) mice were injected either with microbeads (“Bead”, left eye), to increase intraocular pressure (IOP), or with BSS (right eye). Following intraocular injections, mice were randomized to twice weekly subcutaneous NLY01 (5 mg kg^−1 per injection) or normal saline solution (NSS). 42 days post-injection mice were euthanized, neurosensory retina (“NSR”) was harvested and sorted as described in FIG. 9A to isolate CD11b+CD11c− and CD11b+ CD11c+ cells. […] All data presented as mean±SEM. Ordinary one-way ANOVA, *p<0.05, **p<0.01, ***p<0.001, ****p<0.0001.
# ACSA2+, CD11b+ CD11c−, and CD11b+ CD11c+ cells were isolated from adult murine retinas using the Miltenyi Adult Brain Dissociation Kit (Miltenyi Biotec, 130-107-677) and MACS magnetic cell separation system. […]
# ELISA kits were used to measure protein levels of IL-1α (BMS627, Thermofisher Scientific), TNF-α (BMS607-3, Thermofisher Scientific), C1q (LS-F55223-1, LifeSpan BioSciences), C3 (ab157711, Abcam), and phospho-NFκB/total NFκB (Thermofisher Scientific, 50-246-259) according to the manufacturer's protocol. […] Protein levels were determined by comparing the absorbance produced by the samples with that of a calibration curve. […]
# [6] = test system: CD11b+ CD11c+ cells; assay: qPCR of Il1a, Tnf, C1qa mRNA in CD11b+ CD11c+ cells sorted from neurosensory retina of microbead-injected mice; assay type: in vivo, mouse; settings: NLY01 5 mg/kg s.c. twice weekly vs NSS
# [7] = test system: CD11b+ CD11c− cells; assay: qPCR of Il1a, Tnf, C1qa mRNA in CD11b+ CD11c- cells sorted from neurosensory retina of microbead-injected mice; assay type: in vivo, mouse; settings: NLY01 5 mg/kg s.c. twice weekly vs NSS
# [8] = cited from earlier work
# [9] = cited from earlier work; remark: listed apart in the source
# [10] = mouse model of Parkinson's disease
substance,measurement,setting,value
"NLY01: pegylated exendin-4 (exenatide); long-acting GLP-1R agonist, obtained from Neuraly",expression of A1-specific transcripts in ACSA2+ fraction,[1]; 14th day post-injection,reduced
same,expression of C3 in ACSA2+ fraction,[1]; 14th day post-injection,reduced
same,expression of pan reactive transcripts in ACSA2+ fraction,[1]; 14th day post-injection,reduced
same,expression of A1-specific transcripts in ACSA2+ fraction,[1]; 42nd day post-injection,reduced
same,expression of C3 in ACSA2+ fraction,[1]; 42nd day post-injection,reduced
same,expression of pan reactive transcripts in ACSA2+ fraction,[1]; 42nd day post-injection,reduced
same,effect on intraocular pressure in microbead- or BSS-injected eyes,[2],no effect
same,nuclear translocation and phosphorylation of NFκB in brain microglia,[3],reduce
same,"RGC death secondary to eIOP, Brn3a+ cell counting",[4],reduced
same,"RGC death secondary to eIOP, RBPMS+ cell counting",[4],reduced
same,mRNA levels of IκBα,[5],increased
same,phosphorylated NFκB protein levels,[5],decreased
same,CD11b+ CD11c+ expression of C1q,[6]; 14th day post-injection,reduced
same,CD11b+ CD11c+ expression of IL-1α,[6]; 14th day post-injection,reduced
same,CD11b+ CD11c+ expression of TNF-α,[6]; 14th day post-injection,reduced
same,second cell population (CD11b+ CD11c−) expression of C1q,[6]; 42nd day post-injection,reduced
same,second cell population (CD11b+ CD11c−) expression of IL-1α,[6]; 42nd day post-injection,reduced
same,second cell population (CD11b+ CD11c−) expression of TNF-α,[6]; 42nd day post-injection,reduced
same,CD11b+ CD11c− basal expression of C1q,[7]; 14th day post-injection,without altering
same,CD11b+ CD11c− basal expression of IL-1a,[7]; 14th day post-injection,without altering
same,CD11b+ CD11c− upregulation of TNF-α,[7]; 14th day post-injection,reduced
same,CD11b+ CD11c− expression of C1q,[7]; 42nd day post-injection,reduced
same,CD11b+ CD11c− expression of IL-1α,[7]; 42nd day post-injection,reduced
same,CD11b+ CD11c− expression of TNF-α,[7]; 42nd day post-injection,reduced
same,blood-brain barrier penetration,[8]; in vivo,favorable
same,half-life,[8]; in vivo,extended
same,"NLY01 concentrations in the brain, Parkinson's disease mouse models vs WT animals",[8]; mouse models of Parkinson's disease,higher
same,microglia density,[9]; [10],reduces
same,relative IBA1 levels,[9]; [10],reduces
same,A1 astrocyte transformation,[9]; mouse models of PD,blocking
same,dopaminergic cell death,[9]; mouse models of PD,reducing
same,"microglial production of C1q, TNF-α, and IL-1α",[9]; mouse models of PD,reduce
same,motor symptoms,[9]; mouse models of PD,improving
